Where a SMILES comes first, the peptide text is derived from it. [ ]: non-standard residue; d: D form. The star is where a group is joined. Orn(α-tetramethylguanidino) = CN(C)C(=N[C@@H](CCCN)C(=O)*)N(C)C; Orn = NCCC[C@H](N)C(=O)O
Experiments:
[1] = test system: human erythrocytes; assay: Hemolysis assay; format: cell-based; details: 0.1 g/L peptide, 1 h
Protocol: Human EDTA blood (S-Monovette® with potassium-EDTA Sarstedt AG, Nümbrecht, Germany) was centrifuged (3 min, 300 × g, 4°C) and blood cells were washed three times using the 10-fold volume of cold PBS. The diluted blood cell suspension (2% v/v in PBS, 50 μL) was mixed with a peptide solution (1.2 or 0.2 g/L in PBS, 50 μL) or triton X-100 (1%, v/v in PBS; control) in 96-well plates (PP, V-bottom). After incubation under constant shaking (1 h, 37°C, 300 rpm, Eppendorf Thermomixer) the suspension was centrifuged (3 min, 4°C, 1000 × g) and the OD405 of the supernatant was measured in a 384-well plate (PS, flat bottom, Paradigm microplate reader, Molecular Devices, Sunnyvale, USA). The hemolytic grade (HG) was calculated as [(ODPeptide−ODPBS)/(ODTriton−ODPBS)] × 100%.

[2] = test system: HeLa cells; assay: Flow cytometry, cell uptake of Cf-labeled peptides; format: cell-based; details: flow cytometry (abstract)
Protocol: HeLa cells (50,000 for endocytosis inhibition and 70,000 for uptake kinetics) suspended in DMEM/F-12 medium (300 μL; see above) were seeded into 48-well plates (PS, sterile, flat bottom) and incubated (23 ± 1 h) using the conditions described above. Cells were washed twice with PBS (300 μL/well) and fresh medium was added (144 μL).
Peptide solutions (6 μL; 1 mmol/L in H2O) were added to achieve a concentration of 40 μmol/L at different time points. Cells were washed three times with PBS (300 μL/well), treated with trypsin (75 μL; 0.05% w/v trypsin, 5 min, 37°C), rinsed off the plate using cold PBS (600 μL/well), and trypsin was removed by two washing steps (400 × g, 4°C, 4 min, 600 μL PBS each). Cells were suspended in PBS (0.1 mL) containing eFluor660 (1000 × diluted in PBS) and incubated on ice in the dark. After 30 min, cells were washed with cold PBS twice, suspended in formaldehyde (100 μL; 2% w/v in PBS), incubated (15 min, RT), washed (200 μL PBS), stored in FACS buffer (200 μL; 3% FBS, 0.1% NaN3 in PBS) overnight, and analyzed on a FACSCalibur (Becton Dickinson, New Jersey, USA). Alternatively, cells were fixed directly without prior eFluor660 staining.

[3] = test system: HeLa cells; format: cell-based; details: 24 h
Protocol: Human embryonic kidney (HEK293) and HeLa cells were cultured in Dulbecco's modified Eagle's/Ham's F-12 medium [DMEM/F-12 (1:1)] supplemented with FBS (10% v/v), penicillin, and streptomycin (1000 units each). Primary rat cardiomyocytes (Innoprot, Elexalde Derio, Spain) were grown in medium supplemented with FBS (20% v/v), horse serum (5% v/v), L-glutamine (2 mmol/L), sodium pyruvate (2 mmol/L), MEM non-essential amino acids (Gibco, 0.1 mmol/L), penicillin, and streptomycin (1000 units each). Surfaces for cardiomyocyte growth were coated with attachment factor first. Cells (20,000/well) were seeded into a 96-well plate (PS, sterile, flat bottom), incubated for 24 h (37°C, 5% CO2), and washed twice with PBS (100 μl/well) prior to adding colorless medium (88 μL) and peptide solution (12 μL; 5, 2.5, 1.25, […], and 0.625 g/L in PBS). Positive controls were triton X-100 (1%, v/v) and melittin (60 mg/L) as lytic peptide, whereas PBS (12%, v/v) served as negative control. After an incubation period of 24 h, supernatant (25 μL) was mixed with lactate dehydrogenase (LDH) substrate (175 μL; 0.57 mmol/L sodium pyruvate, 0.24 mmol/L NADH disodium salt, 32 mmol/L potassium dihydrogen phosphate, 66 mmol/L dipotassium phosphate) in 96-well plates (PS, sterile, flat bottom). Absorbance was recorded at 340 nm every 3 min for 30 min on the Paradigm microplate reader. […]

[4] = in vitro; format: cell-based; details: human
Protocol: Human embryonic kidney (HEK293) and HeLa cells were cultured in Dulbecco's modified Eagle's/Ham's F-12 medium [DMEM/F-12 (1:1)] supplemented with FBS (10% v/v), penicillin, and streptomycin (1000 units each). Primary rat cardiomyocytes (Innoprot, Elexalde Derio, Spain) were grown in medium supplemented with FBS (20% v/v), horse serum (5% v/v), L-glutamine (2 mmol/L), sodium pyruvate (2 mmol/L), MEM non-essential amino acids (Gibco, 0.1 mmol/L), penicillin, and streptomycin (1000 units each). Surfaces for cardiomyocyte growth were coated with attachment factor first. Cells (20,000/well) were seeded into a 96-well plate (PS, sterile, flat bottom), incubated for 24 h (37°C, 5% CO2), and washed twice with PBS (100 μl/well) prior to adding colorless medium (88 μL) and peptide solution (12 μL; 5, 2.5, 1.25, […], and 0.625 g/L in PBS). Positive controls were triton X-100 (1%, v/v) and melittin (60 mg/L) as lytic peptide, whereas PBS (12%, v/v) served as negative control. After an incubation period of 24 h, supernatant (25 μL) was mixed with lactate dehydrogenase (LDH) substrate (175 μL; 0.57 mmol/L sodium pyruvate, 0.24 mmol/L NADH disodium salt, 32 mmol/L potassium dihydrogen phosphate, 66 mmol/L dipotassium phosphate) in 96-well plates (PS, sterile, flat bottom). Absorbance was recorded at 340 nm every 3 min for 30 min on the Paradigm microplate reader. Due to the total release of LDH upon triton X-100 treatment, the control contained high LDH concentrations resulting in a fast substrate turnover that was only linear for the first 6 min.
The MTT cell viability assay relied on the same cell culture. Remaining medium was replaced by a mixture of fresh colorless medium (100 μL) and MTT (10 μL; 5 g/L in PBS) and incubated for 4 h (37°C, 5% CO2). A solution of sodium dodecyl sulfate (100 μL; 10%, w/v) dissolved in hydrochloric acid (10 mmol/L) was added, incubated (16 h), and the absorbance recorded at 590 nm relative to the reference at 650 nm (Paradigm microplate reader). The relative cell viability was calculated by [(ODPeptide − ODTriton)/(ODPBS − ODTriton)] × 100% and half-maximal inhibitory concentrations (IC50) with an Excel-template from cell biology protocols (www.sciencegateway.org/ protocols/cellbio/drug/hcic50.htm). For statistical analysis an unpaired t-test was applied using GraphPad Prism 5.0.

[5] = test system: Escherichia coli ATCC25922; design: method as in unpublished data; details: mouse infection models with E. coli ATCC25922, doses of only 0.6 mg/kg; ref unpublished data; cited from earlier work
[6] = test system: HeLa cells; design: method as in Berthold et al., 2013; Bluhm et al., 2015; details: ref Berthold et al., 2013, Bluhm et al., 2015; cited from earlier work
[7] = test system: Primary rat cardiomyocytes; design: method as in Berthold et al., 2013; Bluhm et al., 2015; details: ref Berthold et al., 2013, Bluhm et al., 2015; cited from earlier work

## CC(C)C[C@H](NC(=O)[C@H](CCCNC(=N)N)NC(=O)[C@@H]1CCCN1C(=O)[C@H](Cc1c[nH]cn1)NC(=O)[C@@H]1CCCN1C(=O)[C@@H]1CCCN1C(=O)[C@H](CCCNC(=N)N)NC(=O)[C@@H]1CCCN1C(=O)[C@H](CCCNC(=N)N)NC(=O)[C@@H]1CCCN1C(=O)[C@H](CCCN)NC(=O)[C@H](Cc1ccc(O)cc1)NC(=O)[C@@H](NC(=O)[C@@H]1CCCN1C(=O)[C@H](CCCNC(=N)N)NC(=O)[C@H](CCCN)NC(=O)[C@H](Cc1c[nH]c2ccccc12)NC(=O)[C@H](CCCN)NC(=O)[C@H](Cc1c[nH]c2ccccc12)NC(=O)[C@H](CCCN)NC(=O)[C@H](Cc1c[nH]c2ccccc12)NC(=O)[C@H](CCCN)N=C(N(C)C)N(C)C)C(C)C)C(=O)O [Api794, gu-O(WO)3RPVYOPRPRPPHPRL-OH] ({Orn(α-tetramethylguanidino)}-W[Orn]W[Orn]W[Orn]RPVY[Orn]PRPRPPHPRL-OH)
[1]
  Hemolytic grade: 1.7 ± 0.2%
[2]
  higher uptake compared with Api795: 50%
[3]
  EC50 of LDH release: 560 ± 160 µg/mL

## CC[C@H](C)[C@H](NC(=O)[C@H](CCCN)N=C(N(C)C)N(C)C)C(=O)N[C@@H](CCCN)C(=O)N[C@H](C(=O)N[C@@H](CCCN)C(=O)N[C@@H](CCCNC(=N)N)C(=O)N1CCC[C@H]1C(=O)N[C@H](C(=O)N[C@@H](Cc1ccc(O)cc1)C(=O)N[C@@H](CCCN)C(=O)N1CCC[C@H]1C(=O)N[C@@H](CCCNC(=N)N)C(=O)N1CCC[C@H]1C(=O)N[C@@H](CCCNC(=N)N)C(=O)N1CCC[C@H]1C(=O)N1CCC[C@H]1C(=O)N[C@@H](Cc1c[nH]cn1)C(=O)N1CCC[C@H]1C(=O)N[C@@H](CCCNC(=N)N)C(=O)N[C@@H](CC(C)C)C(=O)O)C(C)C)[C@@H](C)CC [Api795, gu-O(IO)2RPVYOPRPRPPHPRL-OH] ({Orn(α-tetramethylguanidino)}-I[Orn]I[Orn]RPVY[Orn]PRPRPPHPRL-OH)
[4]
  viability at 24 h, 0.6 g/L: 78 ± 14%

## CC[C@H](C)[C@H](NC(=O)[C@H](Cc1ccc(O)cc1)NC(=O)[C@@H](NC(=O)[C@@H]1CCCN1C(=O)[C@H](CCCNC(=N)N)NC(=O)[C@H](CC(N)=O)NC(=O)[C@H](CC(N)=O)NC(=O)[C@H](CCCN)N=C(N(C)C)N(C)C)C(C)C)C(=O)N1CCC[C@H]1C(=O)N[C@@H](CCCNC(=N)N)C(=O)N1CCC[C@H]1C(=O)N[C@@H](CCCNC(=N)N)C(=O)N1CCC[C@H]1C(=O)N1CCC[C@H]1C(=O)N[C@@H](Cc1c[nH]cn1)C(=O)N1CCC[C@H]1C(=O)N[C@@H](CCCNC(=N)N)C(=O)N[C@@H](CC(C)C)C(=O)O [Api137, gu-ONNRPVYIPRPRPPHPRL-OH, reference compound] ({Orn(α-tetramethylguanidino)}-NNRPVYIPRPRPPHPRL-OH)
[5]
  survival rate: 100%
[6]
  IC50 on cell viability: >600 µg/mL
[7]
  IC50 on cell viability: >600 µg/mL
